From patent US10538498B2, “1,3,4-oxadiazole sulfonamide derivative compounds as histone deacetylase 6 inhibitor, and the pharmaceutical composition comprising the same” (Chong Kun Dang Pharmaceutical Corp., priority 2015, dated 2020)

How the values were obtained:
human recombinant HDAC1 = molecular target: T1, human recombinant HDAC1 (Homo sapiens, UniProt Q13547); experiment: HDAC1 enzyme activity inhibition assay (HDAC Fluorimetric Drug Discovery Kit); format: biochemical; conditions: 0.3 μg enzyme, 10 μM substrate, 30° C., 60 minutes
T1 construct: purchased Enzo Life Science BML-SE456
T1 sequence (Q13547 whole entry): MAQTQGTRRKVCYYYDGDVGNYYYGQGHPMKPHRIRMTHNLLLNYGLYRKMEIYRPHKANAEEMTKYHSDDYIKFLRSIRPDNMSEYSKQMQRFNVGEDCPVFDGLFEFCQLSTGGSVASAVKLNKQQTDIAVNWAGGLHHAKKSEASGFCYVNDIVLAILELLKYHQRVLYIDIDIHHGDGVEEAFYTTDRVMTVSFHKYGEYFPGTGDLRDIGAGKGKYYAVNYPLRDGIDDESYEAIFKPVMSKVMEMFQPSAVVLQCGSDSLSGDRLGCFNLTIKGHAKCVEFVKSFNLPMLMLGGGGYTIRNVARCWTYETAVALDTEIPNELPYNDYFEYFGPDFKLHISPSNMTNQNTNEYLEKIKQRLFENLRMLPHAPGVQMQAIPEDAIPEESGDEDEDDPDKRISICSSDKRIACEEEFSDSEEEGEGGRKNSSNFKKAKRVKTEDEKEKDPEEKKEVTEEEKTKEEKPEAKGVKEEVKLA
Description: In order to examine the HDAC6 selectivity of the compounds of formula I of the present invention by HDAC1 and HDAC6 enzymatic activity inhibition assays, an experiment was performed using a conventional substance as a control.
HDAC enzyme activity was measured using a HDAC Fluorimetric Drug Discovery Kit (BML-AK511, 516, Enzo Life Science). For the HDAC1 enzyme activity test, human recombinant HDAC1 (BML-SE456) was used as an enzyme source, and Fluor de Lys®-“SIRT1 (BNL-KI177) was used as a substrate. A 5-fold dilution of the compound was seeded into a 96-well plate, and then 0.3 μg of the enzyme and 10 μM of the substrate were added to each well of the plate and allowed to react at 30° C. for 60 minutes. Then, Fluor de Lys®-Developer II (BML-KI176) was added thereto and allowed to react for 30 minutes, after which the fluorescence value (Ex 360, Em 460) was measured using a multi-plate reader (Flexstation 3, Molecular Device). The HDAC6 enzyme was tested using human recombinant HDAC6 (382180) (Calbiochem) according to the same protocol as the HDAC1 enzyme activity test method. Based on the resulting values, each IC50 value was calculated using GraphPad Prism4.0 program.

human recombinant HDAC6 = molecular target: T2, human recombinant HDAC6 (Homo sapiens, UniProt Q9UBN7); experiment: HDAC6 enzyme activity inhibition assay (HDAC Fluorimetric Drug Discovery Kit); format: biochemical; conditions: for HDAC6 selectivity (fold): HDAC1 vs HDAC6; for IC50: same protocol as the HDAC1 enzyme activity test
T2 construct: purchased Calbiochem 382180
T2 sequence (Q9UBN7 1-1215): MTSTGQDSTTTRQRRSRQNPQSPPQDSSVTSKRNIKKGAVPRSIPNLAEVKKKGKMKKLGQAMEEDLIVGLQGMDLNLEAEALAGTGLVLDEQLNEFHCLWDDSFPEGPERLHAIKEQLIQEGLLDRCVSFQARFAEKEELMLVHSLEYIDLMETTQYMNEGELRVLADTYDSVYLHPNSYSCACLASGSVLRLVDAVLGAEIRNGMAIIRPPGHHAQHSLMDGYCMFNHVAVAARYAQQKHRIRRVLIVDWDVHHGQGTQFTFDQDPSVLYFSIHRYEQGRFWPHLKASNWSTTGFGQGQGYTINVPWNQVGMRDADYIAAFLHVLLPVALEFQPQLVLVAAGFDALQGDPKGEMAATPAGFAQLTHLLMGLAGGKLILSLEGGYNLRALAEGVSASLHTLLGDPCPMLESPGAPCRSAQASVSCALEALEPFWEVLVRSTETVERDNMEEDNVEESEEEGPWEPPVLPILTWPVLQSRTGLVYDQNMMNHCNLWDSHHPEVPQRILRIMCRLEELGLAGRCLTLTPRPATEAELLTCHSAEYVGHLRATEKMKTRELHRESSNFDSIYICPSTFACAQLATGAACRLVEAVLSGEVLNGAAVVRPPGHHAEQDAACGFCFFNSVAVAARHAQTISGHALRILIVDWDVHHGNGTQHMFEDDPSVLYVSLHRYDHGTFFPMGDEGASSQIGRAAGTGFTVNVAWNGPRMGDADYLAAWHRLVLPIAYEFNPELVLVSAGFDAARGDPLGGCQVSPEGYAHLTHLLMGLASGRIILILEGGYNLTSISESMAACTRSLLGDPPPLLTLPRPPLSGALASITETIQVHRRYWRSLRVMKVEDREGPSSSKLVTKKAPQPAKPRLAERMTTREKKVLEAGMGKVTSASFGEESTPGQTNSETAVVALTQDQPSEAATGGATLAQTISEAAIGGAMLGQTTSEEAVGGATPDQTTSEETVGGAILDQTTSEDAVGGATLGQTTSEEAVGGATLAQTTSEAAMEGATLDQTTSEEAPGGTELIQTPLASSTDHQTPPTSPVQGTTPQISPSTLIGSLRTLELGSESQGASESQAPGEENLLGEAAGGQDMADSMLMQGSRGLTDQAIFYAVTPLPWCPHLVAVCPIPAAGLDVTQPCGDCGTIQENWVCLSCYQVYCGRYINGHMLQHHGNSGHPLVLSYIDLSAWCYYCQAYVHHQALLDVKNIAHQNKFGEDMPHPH
Method in brief: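 Both isoforms are run by an identical fluorimetric protocol: deacetylation of 10 μM Fluor de Lys-SIRT1 substrate by 0.3 μg recombinant enzyme over 60 min at 30° C, in the presence of 5-fold compound dilutions. Signal is developed for 30 min and read at Ex 360/Em 460 to derive IC50.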

Compound: O=S(=O)(C1CCOCC1)N(Cc1ccc(-c2nnc(C(F)(F)F)o2)cn1)c1ccccc1 [Compound 11431, N-phenyl-N-((5-(5-(trifluoromethyl)-1,3,4-oxadiazol-2-yl)pyridin-2-yl)methyl)tetrahydro-2H-pyran-4-sulfonamide]
- IC50 (human recombinant HDAC1): 28.1 µM
- HDAC6 selectivity (fold) (human recombinant HDAC6): 453 fold
- IC50 (human recombinant HDAC6): 0.062 µM

Compound: CS(=O)(=O)N(Cc1ccc(-c2nnc(C(F)(F)F)o2)cn1)c1ccc(F)c(Cl)c1 [Compound 11432, N-(3-chloro-4-fluorophenyl)-N-((5-(5-(trifluoromethyl)-1,3,4-oxadiazol-2-yl)pyridin-2-yl)methyl)methanesulfonamide]
- IC50 (human recombinant HDAC1): 16.5 µM
- HDAC6 selectivity (fold) (human recombinant HDAC6): 271 fold
- IC50 (human recombinant HDAC6): 0.061 µM

Compound: CN1CC(N2CCC(S(=O)(=O)N(Cc3ccc(-c4nnc(C(F)F)o4)cc3F)c3ccc(F)c(Cl)c3)CC2)C1 [Compound 11451, N-(3-chloro-4-fluorophenyl)-N-(4-(5-(difluoromethyl)-1,3,4-oxadiazol-2-yl)-2-fluorobenzyl)-1-(1-methylazetidin-3-yl)piperidine-4-sulfonamide]
- IC50 (human recombinant HDAC1): 27.2 µM
- HDAC6 selectivity (fold) (human recombinant HDAC6): 3018 fold
- IC50 (human recombinant HDAC6): 0.009 µM

Compound: O=C(CO)N1CC(N2CCC(S(=O)(=O)N(Cc3ccc(-c4nnc(C(F)F)o4)cc3F)c3ccc(F)c(Cl)c3)CC2)C1 [Compound 11452, N-(3-chloro-4-fluorophenyl)-N-(4-(5-(difluoromethyl)-1,3,4-oxadiazol-2-yl)-2-fluorobenzyl)-1-(1-(2-hydroxyacetyl)azetidin-3-yl)piperidine-4-sulfonamide]
- IC50 (human recombinant HDAC1): 27.5 µM
- HDAC6 selectivity (fold) (human recombinant HDAC6): 3439 fold
- IC50 (human recombinant HDAC6): 0.008 µM

Compound: CCS(=O)(=O)N(Cc1ccc(-c2nnc(C(F)F)o2)cn1)c1ccc(C)c(F)c1 [Compound 11460, N-((5-(5-(difluoromethyl)-1,3,4-oxadiazol-2-yl)pyridin-2-yl)methyl)-N-(3-fluoro-4-methylphenyl)ethanesulfonamide]
- IC50 (human recombinant HDAC1): 27.3 µM
- HDAC6 selectivity (fold) (human recombinant HDAC6): 2727 fold
- IC50 (human recombinant HDAC6): 0.01 µM

Compound: CCS(=O)(=O)N(Cc1ccc(-c2nnc(C(F)F)o2)cn1)c1ccc(F)c(C)c1 [Compound 11461, N-((5-(5-(difluoromethyl)-1,3,4-oxadiazol-2-yl)pyridin-2-yl)methyl)-N-(4-fluoro-3-methylphenyl)ethanesulfonamide]
- IC50 (human recombinant HDAC1): 27.7 µM
- HDAC6 selectivity (fold) (human recombinant HDAC6): 2769 fold
- IC50 (human recombinant HDAC6): 0.01 µM

Compound: CCS(=O)(=O)N(Cc1ccc(-c2nnc(C(F)F)o2)cn1)c1ccc(F)c(F)c1 [Compound 11462, N-((5-(5-(difluoromethyl)-1,3,4-oxadiazol-2-yl)pyridin-2-yl)methyl)-N-(3,4-difluorophenyl)ethanesulfonamide]
- IC50 (human recombinant HDAC1): 21.1 µM
- HDAC6 selectivity (fold) (human recombinant HDAC6): 2635 fold
- IC50 (human recombinant HDAC6): 0.008 µM

Compound: CCS(=O)(=O)N(Cc1ccc(-c2nnc(C(F)F)o2)cn1)c1cc(F)cc(F)c1 [Compound 11463, N-((5-(5-(difluoromethyl)-1,3,4-oxadiazol-2-yl)pyridin-2-yl)methyl)-N-(3,5-difluorophenyl)ethanesulfonamide]
- IC50 (human recombinant HDAC1): 22.3 µM
- HDAC6 selectivity (fold) (human recombinant HDAC6): 2789 fold
- IC50 (human recombinant HDAC6): 0.008 µM

Compound: O=S1(=O)CCC(S(=O)(=O)N(Cc2ccc(-c3nnc(C(F)F)o3)cn2)c2ccc(F)c(Cl)c2)CC1 [Compound 11497, N-(3-chloro-4-fluorophenyl)-N-((5-(5-(difluoromethyl)-1,3,4-oxadiazol-2-yl)pyridin-2-yl)methyl)tetrahydro-2H-thiopyran-4-sulfonamide 1,1-dioxide]
- IC50 (human recombinant HDAC1): 21.8 µM
- HDAC6 selectivity (fold) (human recombinant HDAC6): 2727 fold
- IC50 (human recombinant HDAC6): 0.008 µM

Compound: O=S(=O)(C1CCN(C2COC2)CC1)N(Cc1ccc(-c2nnc(C(F)F)o2)cn1)c1ccc(F)c(Cl)c1 [Compound 11501, N-(3-chloro-4-fluorophenyl)-N-((5-(5-(difluoromethyl)-1,3,4-oxadiazol-2-yl)pyridin-2-yl)methyl)-1-(oxetan-3-yl)piperidine-4-sulfonamide]
- IC50 (human recombinant HDAC1): 56.7 µM
- HDAC6 selectivity (fold) (human recombinant HDAC6): 3779 fold
- IC50 (human recombinant HDAC6): 0.015 µM

Compound: CC(=O)N1CC(N2CCC(S(=O)(=O)N(Cc3ccc(-c4nnc(C(F)F)o4)cn3)c3ccc(F)c(Cl)c3)CC2)C1 [Compound 11502, 1-(1-acetylazetidin-3-yl)-N-(3-chloro-4-fluorophenyl)-N-((5-(5-(difluoromethyl)-1,3,4-oxadiazol-2-yl)pyridin-2-yl)methyl)piperidine-4-sulfonamide]
- IC50 (human recombinant HDAC1): 78.1 µM
- HDAC6 selectivity (fold) (human recombinant HDAC6): 5579 fold
- IC50 (human recombinant HDAC6): 0.014 µM

Compound: CS(=O)(=O)N1CC(N2CCC(S(=O)(=O)N(Cc3ccc(-c4nnc(C(F)F)o4)cn3)c3ccc(F)c(Cl)c3)CC2)C1 [Compound 11503, N-(3-chloro-4-fluorophenyl)-N-((5-(5-(difluoromethyl)-1,3,4-oxadiazol-2-yl)pyridin-2-yl)methyl)-1-(1-(methylsulfonyl)azetidin-3-yl)piperidine-4-sulfonamide]
- IC50 (human recombinant HDAC1): 71.9 µM
- HDAC6 selectivity (fold) (human recombinant HDAC6): 4792 fold
- IC50 (human recombinant HDAC6): 0.015 µM

Compound: CCS(=O)(=O)N(Cc1ccc(-c2nnc(C(F)F)o2)cn1)c1ccc(Cl)c(C)c1 [Compound 11504, N-(4-chloro-3-methylphenyl)-N-((5-(5-(difluoromethyl)-1,3,4-oxadiazol-2-yl)pyridin-2-yl)methyl)ethanesulfonamide]
- IC50 (human recombinant HDAC1): 86.2 µM
- HDAC6 selectivity (fold) (human recombinant HDAC6): 4790 fold
- IC50 (human recombinant HDAC6): 0.018 µM

Compound: CCS(=O)(=O)N(Cc1ccc(-c2nnc(C(F)F)o2)cn1)c1ccc(C)c(Cl)c1 [Compound 11505, N-(3-chloro-4-methylphenyl)-N-((5-(5-(difluoromethyl)-1,3,4-oxadiazol-2-yl)pyridin-2-yl)methyl)ethanesulfonamide]
- IC50 (human recombinant HDAC1): 60.4 µM
- HDAC6 selectivity (fold) (human recombinant HDAC6): 4646 fold
- IC50 (human recombinant HDAC6): 0.013 µM

Compound: CCS(=O)(=O)N(Cc1ccc(-c2nnc(C(F)F)o2)cn1)c1cc(Cl)cc(Cl)c1 [Compound 11506, N-(3,5-dichlorophenyl)-N-((5-(5-(difluoromethyl)-1,3,4-oxadiazol-2-yl)pyridin-2-yl)methyl)ethanesulfonamide]
- IC50 (human recombinant HDAC1): 59.7 µM
- HDAC6 selectivity (fold) (human recombinant HDAC6): 4977 fold
- IC50 (human recombinant HDAC6): 0.012 µM

Compound: CCS(=O)(=O)N(Cc1ccc(-c2nnc(C(F)F)o2)cn1)c1ccc(Cl)c(Cl)c1 [Compound 11507, N-(3,4-dichlorophenyl)-N-((5-(5-(difluoromethyl)-1,3,4-oxadiazol-2-yl)pyridin-2-yl)methyl)ethanesulfonamide]
- IC50 (human recombinant HDAC1): 51.4 µM
- HDAC6 selectivity (fold) (human recombinant HDAC6): 3672 fold
- IC50 (human recombinant HDAC6): 0.014 µM

Compound: CCS(=O)(=O)N(Cc1ccc(-c2nnc(C(F)F)o2)cn1)c1cc(C)cc(Cl)c1 [Compound 11508, N-(3-chloro-5-methylphenyl)-N-((5-(5-(difluoromethyl)-1,3,4-oxadiazol-2-yl)pyridin-2-yl)methyl)ethanesulfonamide]
- IC50 (human recombinant HDAC1): 49.6 µM
- HDAC6 selectivity (fold) (human recombinant HDAC6): 2155 fold
- IC50 (human recombinant HDAC6): 0.023 µM

Compound: O=S(=O)(CCN1CCCC1)N(Cc1ccc(-c2nnc(C(F)F)o2)cc1F)c1ccc(F)c(Cl)c1 [Compound 11514, N-(3-chloro-4-fluorophenyl)-N-(4-(5-(difluoromethyl)-1,3,4-oxadiazol-2-yl)-2-fluorobenzyl)-2-(pyrrolidin-1-yl)ethane-1-sulfonamide]
- IC50 (human recombinant HDAC1): 40.3 µM
- HDAC6 selectivity (fold) (human recombinant HDAC6): 938 fold
- IC50 (human recombinant HDAC6): 0.043 µM
